The record followed here is US11180501B2, “Crystal form of β-lactamase inhibitor and preparation method therefor” (priority 2017, dated 2021).

Data set [1] in a line: Study on polymorphism, solvent scheme 1 (suspension). It is filed as physicochemical. The settings on record: 40° C. in the dark for 2 days, XRPD. Here is the method: 1. Three samples of about 35 mg of the compound of formula (I) were weighed and placed into 1.5 mL borosilicate glass bottles, respectively, followed by addition of 200 μL of solvent (see Table 2 for the solvent scheme). The obtained mixture was mixed evenly with ultrasound and then placed on a thermostatic oscillator, stirred at 40° C. in the dark for 2 days, and centrifuged quickly. The obtained solid was subjected to XRPD detection (wet product), and then dried in a vacuum dryer at 30° C. for about 15 hours. The obtained dry product was subjected to XPRD detection (dry product).

Data set [2] is described as follows: Study on polymorphism, solvent scheme 2 (dissolved, evaporated to dryness). It is filed as physicochemical. To be noted: 40° C. 2 days, XRPD. Here is the method: 2. Three samples of about 35 mg of compound of formula (I) were weighed and placed into 1.5 mL borosilicate glass bottles, respectively, followed by addition of 600 μL of a solvent (see Table 3 for the solvent scheme). The obtained mixture was mixed evenly with ultrasound and then placed on a thermostatic oscillator, stirred at 40° C. in the dark for 2 days. Then the samples was placed into a fume hood and evaporated to dryness. The obtained samples were subjected to XRPD detection (wet product). The samples were placed in a vacuum dryer and dried at 30° C. for about 15 hours. The obtained dried samples were subjected to XRPD detection (dry product).

Data set [3] in a line: pKa of side-chain group. It is filed as physicochemical. The settings on record: guanidinoxy group.
For data set [4], the system named is OXA-181 carbapenemase-producing Klebsiella Pneumoniae. The data set can be described thus: In vitro synergistic inhibitory concentration (SIC) assay, broth microdilution MIC. The settings on record: in combination with an antibiotic; OXA-181 type. It is filed as cell-based. Here is the method: (§1) The minimum inhibitory concentration (MIC) of the compound of formula (I) against clinically isolated carbapenemase-producing strains was determined by the broth microdilution method.
(§2) 1. Drug susceptibility test: the MIC of commonly used antibacterial drugs against clinically isolated bacteria was determined by the broth microdilution method according to the antimicrobial susceptibility test method described in the 2016 edition of the U.S. Clinical and Laboratory Standards Institute (CLSI) document.
2. […]
(§3) 4. Quality control strains: the quality control strains for the drug susceptibility test included Escherichia coli ATCC 25922 and ATCC 35218.

Data set [5] concerns NDM-1 carbapenemase-producing Klebsiella Pneumoniae. Described as above. It is filed as cell-based. Here is the method:
as §1, §2
(§4) 2. Strains: 8 KPC-2 carbapenemase-producing strains, 8 NDM-1 metalloenzyme-producing strains, 6 OXA carbapenemase-producing strains, and all strains were clinically isolated Klebsiella pneumoniae.
as §3

Data set [6] has as its system KPC-2 carbapenemase-producing Klebsiella Pneumoniae. The description is as above. It is filed as cell-based. To be noted: in combination with an antibiotic; KPC-2 type. Here is the method:
as §1, §2, §4, §3

Data set [7] has as its system Klebsiella pneumoniae (ATCC BAA-1705, KPC-2). Briefly: Mouse lung infection model. It is filed as in vivo. To be noted: female CD-1 mice, ip, with ceftazidime, FIG. 5. Here is the method:
Female CD-1 mice of about 7 weeks old, weighing 26-28 g; cyclophosphamide was injected at a dose of 150 mg/kg 4 days before infection, and further 100 mg/kg 1 day before infection; the bacteria for infection was Klebsiella pneumoniae (ATCC BAA-1705, KPC-2). The compound of formula (I) and the reference compound OP-0595 were synthesized in the laboratory.
Female CD-1 mice were infected with Klebsiella pneumoniae by intranasal instillation. Each mouse was instilled with 50 μL of bacterial liquid through nasal cavity at a dose of 3.14E+07 CFU per mouse. At 2 h, 4 h, 6 h and 8 h after infection, each group of mice were treated with a corresponding compound or a combination of compounds by intraperitoneal injection.
At 10 h after infection, the mice in groups 1, 2 and 3 were euthanized, and the lungs were taken out and placed in 50 mL centrifuge tubes containing 10 mL of sterile normal saline, the tubes were placed on wet ice and transferred to BSL-2 laboratory for CFU counting. […]
The lungs were ground with an IKA T10 homogenizer (the maximum speed was 20S, repeated once). […] After 24 hours, the plate was taken out and the number of single colonies grown in each homogenate with a gradient dilution on the plate was counted, and the amount of bacterial load in the lung of each mouse was calculated.

Regarding `N=C(N)NOCCONC(=O)C1CCC2CN1C(=O)N2OS(=O)(=O)O` (stereo not shown) [the compound of formula (I)], the Crystal form result in data set [1] (Acetone), in data set [1] (Acetonitrile), in data set [1] (Cyclohexane), in data set [1] (Ethanol), in data set [1] (Ethanol-water (volume ratio 1:1)) and in data set [1] (Ethanol-water (volume ratio 3:1)) was “Crystal form A” in each case. In addition, the Crystal form entry in data set [1] (Ethyl acetate), in data set [1] (Isopropanol-water (volume ratio 1:1)), in data set [1] (Methanol), in data set [1] (Methanol-water (volume ratio 1:1)), in data set [1] (Methanol-water (volume ratio 3:1)) and in data set [1] (Tetrahydrofuran) was “Crystal form A” each time. Moreover, the Crystal form result in data set [1] (Water), in data set [2] (Acetone-water (volume ratio 1:2)) and in data set [2] (Acetonitrile-water (volume ratio 1:1)) was “Crystal form A” each time. This compound also displayed a pKa in data set [3] of 8.83. The “antibacterial activity (conclusion)” value in data set [4] is recorded as “strong antibacterial activity”; in data set [5] (in combination with an antibiotic, NDM-1 type), “strong antibacterial activity”; in data set [6], “strong antibacterial activity”. Besides, the “inhibitory activity compared with avibactam” value in data set [5] (NDM-1 type carbapenemase-producing bacteria) was “significantly better than that of avibactam”. In data set [7] (at two different doses (25 & 6.25 mpk; 50 & 12.5 mpk)), the “reduction of the amount of bacterial load in the lung versus the reference group of OP-0595” value is on record as 0.5-1.5 logs. The “potency compared with OP-0595” value in data set [7] is reported as “significantly more potent than the reference compound OP-0595”.

What is called pKa is the negative logarithm of the acid dissociation constant. A low value points to a group that gives up its proton readily.
